Several values for one entry are separate records, joined by “and”; a condition that tells them apart may be missing. Equal entries are not always repeated. Where two headings read alike, the source gives them in different places.
Assays:
Type in all cases: cell-based, mouse
T315I-Bcr-Abl-32D cells [1] = test: dTTP/dCTP pools by RCA-qPCR in T315I-Bcr-Abl-32D cells; settings: T315I-Bcr-Abl-32D cells, combinatory treatment of UK-5099 with JMF4073
Protocol: The methanol extracts were centrifuged
For chloroform extraction, same volume of
attomol of the annealed template-primer.
The RCA products were determined by
The thiophenol compound 3 was
(98.5%) after silica gel chromatography.

untransformed 32D cells = test: CCK-8 cell viability assay, untransformed 32D cells; settings: for viability (vehicle, 0 = 100): 32D cells, 72 h, no BSO; for viability (vehicle, 0 = 100) / viability (0 = 100): single replicates; for viability (0 = 100): Untransformed
Protocol: After 72 h, viability assays were performed.
3 independent experiments. Asterisks denote ***p<0.001 from non-paired two-tailed

WT-Bcr-Abl-32D cells = test: CCK-8 cell viability assay, WT-Bcr-Abl-32D cells; settings: for viability (0 = 100): single replicates
T315I-Bcr-Abl-32D cells [2] = test: CCK-8 cell viability assay, T315I-Bcr-Abl-32D cells; settings: for cell viability (% of NT, 0 JMF4073), Figure 5e / cell viability (% of 0 JMF4073), Figure 5b: T315I; for cell viability (% of NT, 0 JMF4073), Figure 5e: NT (no BSO)

Structure (SMILES): CC(C)(C)OC(=O)N1CCN(C(=O)Cn2sc3ccc(F)cc3c2=O)CC1 [JMF4073, Tert-butyl 4-(2-(5-fluoro-3-oxobenzo[d]isothiazol-2(3H)-yl)acetyl) piperazine-1-carboxylate]
- dCTP pool (T315I-Bcr-Abl-32D cells [1]): exhaustion
- dTTP pool (T315I-Bcr-Abl-32D cells [1]): exhaustion
- viability (vehicle, 0 = 100) (untransformed 32D cells; JMF4073 0.5 mM (so in the source)): 108 and 88
- viability (vehicle, 0 = 100) (untransformed 32D cells; JMF4073 1.25 mM (so in the source)): 86 and 80
- viability (vehicle, 0 = 100) (untransformed 32D cells; JMF4073 2.5 mM (so in the source)): 70 and 71.46
- growth of cells, BSO in combination with JMF4073 (untransformed 32D cells; 32D myeloid progenitor cells): severely suppressed the growth
- GI50 (untransformed 32D cells; Mus musculus, untransformed 32D cells, viability): 4200 nM
- viability (0 = 100) (untransformed 32D cells; JMF4073 1 mM (so in the source)): 80.74 and 95.63 and 110
- viability (0 = 100) (untransformed 32D cells; JMF4073 2 mM (so in the source)): 67.24 and 95.4 and 71
- viability (0 = 100) (untransformed 32D cells; JMF4073 5 mM (so in the source)): 26.41 and 55.58 and 32
- GI50 (WT-Bcr-Abl-32D cells; Mus musculus, WT-Bcr-Abl-32D cells, viability): 670 nM
- viability (0 = 100) (WT-Bcr-Abl-32D cells; WT-Bcr-Abl, JMF4073 1 mM (so in the source)): 5 and 32.8138 and 24
- viability (0 = 100) (WT-Bcr-Abl-32D cells; WT-Bcr-Abl, JMF4073 2 mM (so in the source)): 1 and 9.014 and 19
- viability (0 = 100) (WT-Bcr-Abl-32D cells; WT-Bcr-Abl, JMF4073 5 mM (so in the source)): -1.08 and 0.13 and 0
- cell viability (% of NT vehicle), Figure 5h (WT-Bcr-Abl-32D cells; WT-Bcr-Abl, NT (no NAC), JMF4073, single replicates): 28.4633 and 15.0339 and 2.584
- JMF4073 sensitivity after NAC treatment (WT-Bcr-Abl-32D cells; WT-Bcr-Abl-32D cells, NAC 1 mM + JMF4073 0.5 μM, 72 h): insensitive to JMF4073
- viability at 1000 µM (T315I-Bcr-Abl-32D cells [2]; Mus musculus, T315I-Bcr-Abl, JMF4073 1 mM (so in the source), single replicates, read-out: viability (0 = 100)): 69%
- viability at 500 µM (T315I-Bcr-Abl-32D cells [2]; Mus musculus, T315I-Bcr-Abl, NT (no UK-5099), JMF4073 0.5 mM as printed, replicates, read-out: Figure 6c, viability relative to NT (=100)): 80.7%
- viability at 1250 µM (T315I-Bcr-Abl-32D cells [2]; Mus musculus, T315I-Bcr-Abl, NT (no UK-5099), JMF4073 1.25 mM as printed, replicates, read-out: Figure 6c, viability relative to NT (=100)): 43%
- viability at 500 µM (T315I-Bcr-Abl-32D cells [2]; Mus musculus, read-out: cell viability (% of 0 JMF4073), Figure 5b, T315I, shLacZ, JMF4073 0.5 mM (so in the source), single replicates): 78.6%
- viability at 2500 µM (T315I-Bcr-Abl-32D cells [2]; Mus musculus, read-out: cell viability (% of 0 JMF4073), Figure 5b, T315I, shLacZ, JMF4073 2.5 mM (so in the source), single replicates): 15.5%
- viability at 500 µM (T315I-Bcr-Abl-32D cells [2]; Mus musculus, read-out: cell viability (% of 0 JMF4073), Figure 5b, T315I, shSHMT2, JMF4073 0.5 mM (so in the source), single replicates): 71.4%
- viability at 1250 µM (T315I-Bcr-Abl-32D cells [2]; Mus musculus, read-out: cell viability (% of 0 JMF4073), Figure 5b, T315I, shSHMT2, JMF4073 1.25 mM (so in the source), single replicates): 52.1%
- viability at 2500 µM (T315I-Bcr-Abl-32D cells [2]; Mus musculus, read-out: cell viability (% of 0 JMF4073), Figure 5b, T315I, shSHMT2, JMF4073 2.5 mM (so in the source), single replicates): 14.5%
- viability at 500 µM (T315I-Bcr-Abl-32D cells [2]; Mus musculus, read-out: cell viability (% of NT, 0 JMF4073), Figure 5e, T315I, NT (no BSO), JMF4073 0.5 mM (so in the source), single replicates): 88%
- viability at 1250 µM (T315I-Bcr-Abl-32D cells [2]; Mus musculus, read-out: cell viability (% of NT, 0 JMF4073), Figure 5e, T315I, NT (no BSO), JMF4073 1.25 mM (so in the source), single replicates): 64%
- GI50 (T315I-Bcr-Abl-32D cells [2]; Mus musculus, T315I-Bcr-Abl-32D cells, viability): 1500 nM
- cell viability (% of NT, 0 JMF4073), Figure 5e (T315I-Bcr-Abl-32D cells [2]; JMF4073 0.5 mM (so in the source), single replicates): 86.2452 and 88.0302
- cell viability (% of NT, 0 JMF4073), Figure 5e (T315I-Bcr-Abl-32D cells [2]; JMF4073 1.25 mM (so in the source), single replicates): 67.023 and 70.4858
- cell viability (% of NT, 0 JMF4073), Figure 5e (T315I-Bcr-Abl-32D cells [2]; JMF4073 2.5 mM (so in the source), single replicates): 17 and 12.279 and 45.0063
- cell viability (% of 0 JMF4073), Figure 5b (T315I-Bcr-Abl-32D cells [2]; shLacZ, JMF4073 0.5 mM (so in the source), single replicates): 80.777
- cell viability (% of 0 JMF4073), Figure 5b (T315I-Bcr-Abl-32D cells [2]; shLacZ, JMF4073 1.25 mM (so in the source), single replicates): 68.6184 and 53.2629
- cell viability (% of 0 JMF4073), Figure 5b (T315I-Bcr-Abl-32D cells [2]; shLacZ, JMF4073 2.5 mM (so in the source), single replicates): 11.7008
- cell viability (% of 0 JMF4073), Figure 5b (T315I-Bcr-Abl-32D cells [2]; shSHMT2, JMF4073 0.5 mM (so in the source), single replicates): 67.1231
- cell viability (% of 0 JMF4073), Figure 5b (T315I-Bcr-Abl-32D cells [2]; shSHMT2, JMF4073 1.25 mM (so in the source), single replicates): 37.9395
- cell viability (% of 0 JMF4073), Figure 5b (T315I-Bcr-Abl-32D cells [2]; shSHMT2, JMF4073 2.5 mM (so in the source), single replicates): 11.3951
- viability (0 = 100) (T315I-Bcr-Abl-32D cells [2]; T315I-Bcr-Abl, JMF4073 1 mM (so in the source), single replicates): 70 and 66.4746

Reference: publication PMC11237035, “Glutathione determines chronic myeloid leukemia vulnerability to an inhibitor of CMPK and TMPK” (Communications Biology, 2024)
